According to US8637499B2, “Benzoxazepines as inhibitors of PI3K/mTOR and methods of their use and manufacture” (Exelixis, Inc., priority 2009, dated 2014):

Key:
PI3Kα = PI3Kα (Homo sapiens, UniProt P42336); experiment: PI3K Biochemical Assays (ATP consumption, luciferase-luciferin chemiluminescence); conditions: PI3Kα 1.5 nM, ATP 1 μM, PIP2 10 μM; percent of ATP consumed
Method in brief: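 Kinase activity read as percent ATP consumed via luciferase-luciferin chemiluminescence. 1.5 nM enzyme, 1 μM ATP, 10 μM PIP2 in 50 mM Tris pH 7.5, 1 mM EGTA, 10 mM MgCl2, 1 mM DTT, 0.03% CHAPS; ~2 h at ambient temperature, ATP consumption kept to 40-60%.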

mTORC1 (mTOR/GbL/Raptor) = mTORC1 (mTOR/GbL/Raptor) (Homo sapiens, UniProt P42345); experiment: mTOR/GbL/Raptor (mTORC1) ELISA Assay; type: biochemical; conditions: 0.2 nM mTORC1, 10 μM ATP, 50 nM NHis-tagged 4E-BP1; phosphorylation of 4E-BP1; read-out: IC50
Method in brief: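 mTORC1 (0.2 nM) phosphorylated NHis-tagged 4E-BP1 (50 nM) with 10 μM ATP in 20 mM Hepes pH 7.2, 10 mM MnCl2, for 120 min at ambient temperature. Product was captured on Ni-chelate plates and detected with anti-phospho-4E-BP1 plus HRP secondary antibody by chemiluminescence.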

Chain of PI3Kα (P42336 whole entry): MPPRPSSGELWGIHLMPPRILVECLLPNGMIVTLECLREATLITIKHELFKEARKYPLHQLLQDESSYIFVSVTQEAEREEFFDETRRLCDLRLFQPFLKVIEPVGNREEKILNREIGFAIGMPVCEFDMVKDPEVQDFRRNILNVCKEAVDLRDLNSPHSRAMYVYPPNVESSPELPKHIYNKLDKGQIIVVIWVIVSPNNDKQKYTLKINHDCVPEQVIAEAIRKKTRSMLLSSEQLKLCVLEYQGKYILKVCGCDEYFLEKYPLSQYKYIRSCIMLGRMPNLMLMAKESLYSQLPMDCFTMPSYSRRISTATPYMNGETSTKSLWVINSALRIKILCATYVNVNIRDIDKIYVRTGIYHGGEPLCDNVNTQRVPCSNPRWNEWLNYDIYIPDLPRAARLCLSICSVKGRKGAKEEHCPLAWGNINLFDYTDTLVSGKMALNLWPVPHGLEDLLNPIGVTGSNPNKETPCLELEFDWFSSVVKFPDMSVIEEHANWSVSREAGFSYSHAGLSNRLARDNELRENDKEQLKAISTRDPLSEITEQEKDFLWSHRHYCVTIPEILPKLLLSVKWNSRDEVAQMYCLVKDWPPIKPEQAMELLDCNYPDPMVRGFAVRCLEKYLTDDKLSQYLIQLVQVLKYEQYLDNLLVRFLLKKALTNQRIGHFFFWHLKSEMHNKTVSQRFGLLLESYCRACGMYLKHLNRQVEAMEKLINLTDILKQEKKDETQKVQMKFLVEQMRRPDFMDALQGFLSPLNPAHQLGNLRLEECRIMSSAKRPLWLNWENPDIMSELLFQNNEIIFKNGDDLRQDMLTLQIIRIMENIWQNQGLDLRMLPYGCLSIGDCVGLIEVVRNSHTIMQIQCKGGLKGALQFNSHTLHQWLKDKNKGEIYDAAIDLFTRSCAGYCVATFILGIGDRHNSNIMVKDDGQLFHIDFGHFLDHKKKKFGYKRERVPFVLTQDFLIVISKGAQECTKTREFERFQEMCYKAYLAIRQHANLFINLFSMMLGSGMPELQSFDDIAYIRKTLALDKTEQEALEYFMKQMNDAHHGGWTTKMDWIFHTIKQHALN
Chain of PI3Kα (P27986 whole entry partner): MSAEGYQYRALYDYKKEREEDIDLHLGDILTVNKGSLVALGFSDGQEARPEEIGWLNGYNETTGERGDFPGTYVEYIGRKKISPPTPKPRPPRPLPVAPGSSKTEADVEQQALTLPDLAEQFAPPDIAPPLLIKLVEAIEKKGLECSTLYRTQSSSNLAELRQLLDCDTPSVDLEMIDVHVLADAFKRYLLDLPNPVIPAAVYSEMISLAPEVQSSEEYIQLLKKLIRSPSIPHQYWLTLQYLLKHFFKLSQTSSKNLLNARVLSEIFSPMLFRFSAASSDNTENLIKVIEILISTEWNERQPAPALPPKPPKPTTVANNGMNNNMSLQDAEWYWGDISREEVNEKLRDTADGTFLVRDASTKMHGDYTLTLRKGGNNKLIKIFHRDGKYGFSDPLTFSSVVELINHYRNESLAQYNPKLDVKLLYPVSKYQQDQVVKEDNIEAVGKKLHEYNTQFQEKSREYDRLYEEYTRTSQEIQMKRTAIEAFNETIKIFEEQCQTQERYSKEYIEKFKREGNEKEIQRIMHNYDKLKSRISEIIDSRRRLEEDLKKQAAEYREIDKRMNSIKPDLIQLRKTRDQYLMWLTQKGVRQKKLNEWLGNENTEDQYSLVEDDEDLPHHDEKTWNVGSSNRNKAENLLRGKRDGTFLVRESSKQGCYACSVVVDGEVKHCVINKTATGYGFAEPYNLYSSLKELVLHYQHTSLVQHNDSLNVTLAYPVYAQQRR

Row | Structure (SMILES) | IC50 (PI3Kα) [nM] | IC50 (mTORC1 (mTOR/GbL/Raptor)) [nM]
1 | O=C(N1CCOc2ccc(-c3cnc4nc[nH]c4c3)cc2C1)N1[C@@H]2CC[C@H]1C[C@](O)(C(F)(F)F)C2 [Compound 178, 8-{[7-(1H-imidazo[4,5-b]pyridin-6-yl)-2,3-dihydro-1,4-benzoxazepin-4(5H)-yl]carbonyl}-3-(trifluoromethyl)-8-azabicyclo[3.2.1]octan-3-(endo)-ol] | 200 to 500 | 50 to 250
2 | CCNc1nc2ncc(-c3ccc4c(c3)CN(C(=O)N3[C@@H]5CC[C@H]3C[C@](O)(C(F)(F)F)C5)CCO4)cc2[nH]1 [Compound 179, 8-({7-[2-(ethylamino)-1H-imidazo[4,5-b]pyridin-6-yl]-2,3-dihydro-1,4-benzoxazepin-4(5H)-yl}carbonyl)-3-(trifluoromethyl)-8-azabicyclo[3.2.1]octan-3-(endo)-ol] | ≤ 75 | ≤ 50
3 | CS(=O)(=O)Nc1cc(-c2ccc3c(c2)CN(C(=O)N2C4CCC2CC(O)(C(F)(F)F)C4)CCO3)cnc1Cl (stereo not drawn) [Compound 181, N-[2-chloro-5-(4-{[3-hydroxy-3-(trifluoromethyl)-8-azabicyclo[3.2.1]oct-8-yl]carbonyl}-2,3,4,5-tetrahydro-1,4-benzoxazepin-7-yl)pyridin-3-yl]methanesulfonamide] | ≤ 75 | ≤ 50
